{"source": "patent US20130102469A1", "about": "“Method and compound for removing flora from sewer lines” (Swartz family dba Olvidium, priority 2011, published 2013)", "origin": "cited, not measured here", "system": "tree roots"}
{"smiles": "N#Cc1c(Cl)cccc1Cl", "note": "[Dichlobenil, 2,6 dichlorobenzonitrile]", "values": [{"measurement": "distance back from the contact site over which roots are killed", "setting": "sewer line root control", "value": "1-2 ″"}]}
{"smiles": "c1cc[n+]2c(c1)-c1cccc[n+]1CC2", "note": "[Diquat]", "values": [{"measurement": "root kill (in words)", "setting": "sewer line use, roots coated with organic detritus", "value": "spotty and inconsistent root kill"}]}
{"smiles": "CNC(=S)[S-].[Na+]", "note": "[Metham Sodium]", "values": [{"measurement": "root kill", "setting": "inside the pipe and outside the pipe where the gas travels", "value": 100, "unit": "%"}]}
